The series in a line: Visual examination for brown precipitate formation upon storage of dilute aqueous CMI/MI solutions. In kind it is physicochemical. The conditions noted are these: storage at 55 °C, 30 ppm copper ion. Here is the method: An advantage of the compositions of the present invention is that they are both physically and chemically stable as prepared and upon storage. […] By “physically stable” we mean that the compositions are fluid and show no visible brown precipitate formation after storage for at least 4 weeks at 55° C., and preferably for at least 8 weeks at 55° C. By “chemically stable” is meant that the 3-isothiazolone, particularly the CMI compound, retains at least 60%, preferably at least 70% and more preferably at least 80%, of its original concentration in the dilute solution composition after storage for at least 4 weeks at 55° C., and preferably for at least 8 weeks at 55° C.
Some embodiments of the invention are described in detail in the following Examples. All ratios, parts and percentages are expressed by weight unless otherwise specified, and all reagents used are of good commercial quality unless otherwise specified. The level of copper is reported in ppm as the level of cupric ion. Samples were considered stable when the samples were free of brown precipitate after being stored at least 4 weeks, and preferably at least 8 weeks, at 55° C. Abbreviations used in the Examples and Tables are listed below with the corresponding descriptions.
The samples tested were prepared by adding known amounts of 3-isothiazolone, copper sulfate pentahydrate, water-soluble organic solvent and DI water to a 100-ml glass jar equipped with a magnetic stir bar. The 3-isothiazolone used was an approximate 3:1 (weight/weight) mixture of CMI and MI (98% purity). Ingredients were combined in a manner to provide test solutions containing 1.5% of the 3-isothiazolone (1.53 g per 100 g total solution), 30 ppm copper ion (0.0118 g copper sulfate pentahydrate per 100 g total solution) and various concentrations of water-soluble organic solvent (0 g, 1 g, 5 g, 10 g, 25 g and 50 g per 100 g total solution, corresponding to 0%, 1%, 5%, 10%, 25% or 50% solvent, respectively); the remainder of the solution (to 100 g total) was made up with DI water. Each sample was stirred until all solids were dissolved; portions (approximately 10 g) were then transferred to 20-ml glass vials and stored at room temperature or in an oven at 55° C. The samples were visually examined at various time points to determine the formation of brown precipitate and analyzed by HPLC/UV detection to determine the amount of CMI remaining; in all cases the amount of remaining MI was unchanged (100% of original value).
Consider `CCOC(C)=O` [ethyl acetate, Ethyl Acetate], for which the “stabilizing effect of the solvent regarding prevention of brown precipitate formation (in words)” value is “effective stabilizing solvents at use levels above 1%”.
Then `OCCCCCO` [1,5-pentanediol, 1,5-Pentandiol (Pentamethylene Glycol)], with “effective stabilizing solvents at use levels above 1%”; and `CC(O)CO` (stereo not shown) [PG, Propylene Glycol (1,2-Propanediol)], with “effective stabilizing solvent above levels of 1%”.
Next, `CCO` [ethanol, Ethanol]: “effective stabilizing solvents at use levels above 1%”.

(Values after patent US6403533B2, “Stabilized microbicide formulation” (Rohm and Haas Company, priority 2000, dated 2002).)
